Source: patent publication US10358469B2, “Methods and pharmaceutical compositions for the treatment of cancer” (INSERM (INSTITUT NATIONAL DE LA SANTÉ ET DE LA RECHERCHE …, priority 2014, dated 2019)

Tests used:
[1] = tested on: A549 cells; assay: Cell viability (MTT) of A549 cells under low serum / serum deprivation; format: cell-based
Protocol: (A) Karpas 1106, SU-DHL-5, SeAx and HUT-78 cells were plated at a densities of 6×10^3 in 96 well plates (100 μL total volume per well) and treated for 24 hours in a 37° C. incubator (5% CO2) with increasing concentrations of the Antp-AAC-11-LZ (363-399). 20 μL MTS reagent was then added to each well and plates were incubated for an additional 4 hours. Absorbance was measured at 490 nm using a 96-well plate reader. The extent to which the Antp-AAC-11-LZ (363-399) peptide inhibited cell proliferation was calculated as a percentage of the absorbance in each well containing the Antp-AAC-11-LZ (363-399) peptide relative to wells containing no peptide (negative control). Each bar represents the mean±s.d. from at least three independent experiments. (B) Indicated cells were plated at a densities of 4.5×10^3 in 96 well plates (100 μL total volume per well) and allowed to attach overnight in a 37° C. incubator (5% CO2). Media was removed from cells and replaced with media containing Antp-AAC-11-LZ (363-399) peptide at various concentrations (100 μL total volume per well) peptide and the plates were incubated for 24 hours. The MTT assay was then completed and data analysis was performed as described herein. […] A549 cells were plated at a densities of 4.5×10^3 in 96 well plates (100 μL total volume per well) and allowed to attach overnight in a 37° C. incubator (5% CO2). Media was removed from cells and replaced with media containing the indicated peptides at 10 μM (100 μL total volume per well) and the plates were incubated for 24 hours. The MTT assay was then completed and data analysis was performed as described herein.
(A) A549 cells were plated at a densities of 4.5×10^3 in 96 well plates (100 μL total volume per well) and allowed to attach overnight in a 37° C. incubator (5% CO2). Media was removed from cells and replaced with media containing the indicated peptides at various concentrations (100 μL total volume per well) peptide in the absence of serum and the plates were incubated for 24 hours. The MTT assay was then completed and data analysis was performed as described herein. (B) A549 or HaCat cells were plated at a densities of 4.5×10^3 in 96 well plates (100 μL total volume per well) and allowed to attach overnight in a 37° C. incubator (5% CO2). Media was removed from cells and replaced with media containing the indicated peptides at 10 μM (100 μL total volume per well) peptide in the absence of serum and the plates were incubated for 24 hours. The MTT assay was then completed and data analysis was performed as described herein.
A549 cells were plated at a densities of 4.5×10^3 in 96 well plates (100 μL total volume per well) and allowed to attach overnight in a 37° C. incubator (5% CO2). Cells were left untreated or pre-treated with 100 μM Z-VAD-FMK for 2 h. […] The MTT assay was then completed and data analysis was performed as described herein.
(A) A549 cells were plated at a densities of 4.5×10^3 in 96 well plates (100 μL total volume per well) and allowed to attach overnight in a 37° C. incubator (5% CO2). Media was removed from cells and replaced with media containing the indicated Antp-AAC-11-LZ peptides at various concentrations (100 μL total volume per well) peptide and the plates were incubated for 24 hours. The MTT assay was then completed and data analysis was performed as described herein. (B) A549 or HaCat cells were plated at a densities of 4.5×10^3 in 96 well plates (100 μL total volume per well) and allowed to attach overnight in a 37° C. incubator (5% CO2). Media was removed from cells and replaced with media containing the indicated peptides at 10 μM (100 μL total volume per well) peptide in the absence of serum and the plates were incubated for 24 hours. The MTT assay was then completed and data analysis was performed as described herein.

[2] = tested on: SeAx cells; assay: Propidium iodide (PI) uptake, flow cytometry, SeAx cells; format: cell-based; settings: 4 μM
Protocol: (A) SeAx or HaCat cells cultured in the absence of 10% FBS were left untreated or treated with 4 μM or 10 μM, respectively, of the Antp-AAC-11-LZ (363-399) peptide for the indicated durations. Cells were then analyzed by flow cytometry for PI staining. The results represent the mean number of PI-positive cells±S.D. from at least three independent experiments. (B) A549 and HaCat cells were plated at a densities of 4.5×10^3 in 96 well plates (100 μL total volume per well) and allowed to attach overnight in a 37° C. incubator (5% CO2). […] Lactate dehydrogenase (LDH) activity released in the culture medium was then assessed and data expressed as a percentage of the maximal level (Max) of LDH activity determined after total cell lysis±S.D. from at least three independent experiments.
(A) SeAx cultured in the absence of 10% FBS were left untreated or treated with 4 μM of the indicated Antp-AAC-11-LZ peptides for various times. Cells were then analyzed by flow cytometry for PI staining. […] Lactate dehydrogenase (LDH) activity released in the culture medium was then assessed and data expressed as a percentage of the maximal level (Max) of LDH activity determined after total cell lysis±S.D.
Cell death was evaluated upon staining with propidium iodide and flow cytometry analysis. […]

Substance: Ac-RQIKIWFKKQNRRMKWKKAKLNAEKLKDFKIRLQYFARGLQVYIRQLRLALQGKT-NH2 [Antp-AAC-11-LZ (363-399)]
- cellular viability ([1]; 2 µM): 97 % of control
- influence of cycloheximide on peptide induced-cytotoxicity ([1]; 10 μM cycloheximide, various peptide concentrations, data not shown): had no influence
- induction of cell death of A549 cells ([1]; 10 μM, serum deprivation, 24 hours, FIG. 1C): induced cell death
- effect of pan-caspase inhibitor Z-VAD-FMK on induced cytotoxicity / cell death ([1]; 100 μM Z-VAD-FMK, 2 h pre-treatment, 24 hours, cisplatin 50 μM, FIG. 3): did not rescue, but somehow increased
- PI positive cells ([2]; 5 minutes, absence of 10% FBS): 90%
- PI positive cells, course after 5 minutes ([2]; up to 60 minutes): remained unchanged
